Laboratory results as given in patent publication US20070015214A1, “Methods for identifying compounds for regulating muscle mass or function using prostanoid IP receptors” (The Procter & Gamble Company, priority 2005, published 2007).
Marks after values point to notes of the source that are not given here.

Tested on: casting-induced atrophy of the tibialis anterior and medial gastrocnemius muscles
Assay: mouse casting model of skeletal muscle atrophy
Format: in vivo
Details: fourteen days, casted right hind leg, male mice
Description: The role of the prostanoid IP receptor in vivo is investigated in the mouse casting model of skeletal muscle atrophy using the pharmacological agents carbaprostacyclin, ciprostene, beraprost and iloprost (Cayman Chemical Company, Ann Arbor, Mich.) which are selective agonists for the prostanoid IP receptor. Eight mice are used per treatment group in the study described. Following casting of the right hind leg, male mice are injected subcutaneously in the midscapular region once daily, with either carbaprostacyclin, ciprostene, beraprost, iloprost or vehicle control (phosphate buffered saline), for fourteen days at the daily delivered dose indicated. On day fourteen, the tibialis anterior and medial gastrocnemius muscles are removed and weighed to determine the degree of atrophy. Percent inhibition of atrophy is calculated using the following formula: [formula] Statistical significance of the results is determined using ANCOVA (Douglas C. Montgomery, Design and Analysis of Experiments, John Wiley and Sons, New York (2nd ed. 1984).

[1] = 0.3 mg/kg/d subcutaneously once daily
[2] = 1.0 mg/kg/d subcutaneously once daily
[3] = 3.0 mg/kg/d subcutaneously once daily

SMILES | % inhibition of atrophy medial gastrocnemius muscle [1] | % inhibition of atrophy tibialis anterior muscle [1] | % inhibition of atrophy medial gastrocnemius muscle [2] | % inhibition of atrophy tibialis anterior muscle [2] | % inhibition of atrophy medial gastrocnemius muscle [3] | % inhibition of atrophy tibialis anterior muscle [3]
CC#CCC(C)[C@H](O)/C=C/[C@@H]1[C@H]2c3cccc(CCCC(=O)O)c3O[C@H]2C[C@H]1O (mixture of isomers) [Beraprost] | 46* % | 28* % | 22% | 27* % | 28* % | 5%
CCCCC[C@H](O)/C=C/[C@H]1[C@H](O)C[C@]2(C)C/C(=C\CCCC(=O)O)C[C@H]12 [Ciprostene] | 25* % | 5% | 20% | 9% | 43* % | 25* %
CCCCC[C@H](O)/C=C/[C@@H]1[C@H]2C/C(=C/CCCC(=O)O)C[C@H]2C[C@H]1O [Carbaprostacyclin] | 1% | 0% | 24* % | 12% | 43* % | 8%
CC#CCC(C)[C@H](O)/C=C/[C@@H]1[C@H]2C/C(=C/CCCC(=O)O)C[C@H]2C[C@H]1O (stereo partly drawn) [Iloprost] | 42* % | 18% | 36* % | 21* % | 31* % | 11%
